Consider 14 compounds from PubChem BioAssay (NCI).

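Grown in 96-well plates, cells were treated for 48 hours with each compound at five concentrations. Insufficient inhibition: endpoint recorded as highest concentration tested. At the TGI there is no net growth.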

Some test systems named below: SF-268 CNS; CAKI-1 renal; MCF7 breast; SNB-75 CNS; NCI-H23 lung; MDA-MB-231 breast; SK-OV-3 ovarian; SF-539 CNS; DU-145 prostate; HCT-116 colon.
What all share (experiment): NCI tumour cell line growth inhibition, 48 h

For the compound `Cc1[nH]c(=O)nc(N/N=C/c2ccc(Cl)c(Cl)c2)c1C(=O)Nc1ccc(Cl)c(Cl)c1`, the TGI in the assay on SF-268 CNS was 40.7 µM; in the assay with CAKI-1 renal, 33.3 µM; in the assay with MCF7 breast, 57 µM; with SNB-75 CNS it was 35.3 µM; with NCI-H23 lung, over 44.9 µM; with MDA-MB-231 breast, 15.2 µM. The TGI with SK-OV-3 ovarian is 26.9 µM; in the assay on SF-539 CNS, 41.2 µM; in the assay with DU-145 prostate, over 41.2 µM; in the assay with HCT-116 colon it was over 20.5 µM.

As to `CSc1c(C(C)=O)c(O)n(-c2ccc(Cl)cc2)c(=O)c1C#N`, the TGI was over 100 µM in the assay with SF-268 CNS; 53.2 µM with CAKI-1 renal; over 100 µM in the assay on MCF7 breast; over 100 µM in the assay on SNB-75 CNS; over 100 µM with NCI-H23 lung; over 100 µM in the assay with MDA-MB-231 breast. The TGI in the assay with SK-OV-3 ovarian, with SF-539 CNS, in the assay on DU-145 prostate and in the assay on HCT-116 colon was over 100 µM throughout.

In the case of `c1ccc2c3c(ccc2c1)CSCc1ccc2ccccc2c1-3`, the TGI with SF-268 CNS, in the assay on CAKI-1 renal, in the assay on MCF7 breast, with SNB-75 CNS, with NCI-H23 lung and in the assay on MDA-MB-231 breast was over 100 µM each time. For the same compound, the TGI in the assay with SF-539 CNS, with DU-145 prostate and in the assay with HCT-116 colon was over 100 µM in each case.

`CCCCCCCCCCCCOC1C(COCCN2CCCC2)OC2OC(C)(C)OC21` (stereo not given): the TGI is 4.44 µM in the assay with SF-268 CNS; 3.04 µM in the assay on CAKI-1 renal; 3.1 µM in the assay on MCF7 breast; 3.75 µM in the assay with SNB-75 CNS; 3.48 µM in the assay on NCI-H23 lung; 2.92 µM in the assay on MDA-MB-231 breast. The TGI in the assay on SK-OV-3 ovarian stood at 3.33 µM; with SF-539 CNS, 3.17 µM; in the assay on DU-145 prostate it was 23.1 µM; with HCT-116 colon, 3.13 µM.

`C=C[C@]1(C)CC[C@]2(C)C(CC[C@@]3(C)C2C[C@H](O)[C@H](O)[C@@]3(C)O)C1` (stereo not given in full): the TGI with SF-268 CNS, with CAKI-1 renal, in the assay with MCF7 breast, in the assay on SNB-75 CNS, in the assay on NCI-H23 lung and in the assay with MDA-MB-231 breast was over 100 µM throughout. Moreover, the TGI with SK-OV-3 ovarian, in the assay on SF-539 CNS, in the assay with DU-145 prostate and in the assay with HCT-116 colon was over 100 µM throughout.

For the compound `CC1=NN(c2nc(N)nc(/C(C#N)=C/c3ccncc3)n2)C(C)(C)C1`, the TGI with SF-268 CNS, with CAKI-1 renal, in the assay with MCF7 breast, in the assay on SNB-75 CNS, in the assay on NCI-H23 lung and in the assay with MDA-MB-231 breast was over 100 µM throughout. Also, the TGI in the assay with SK-OV-3 ovarian, in the assay on SF-539 CNS, in the assay with DU-145 prostate and with HCT-116 colon was over 100 µM in each case.

On to `C=CCc1c(O)c2ccccc2[nH]c1=O`, for which the TGI with CAKI-1 renal, in the assay on MCF7 breast, with SNB-75 CNS, in the assay on NCI-H23 lung, in the assay on MDA-MB-231 breast and in the assay on SF-539 CNS was over 100 µM each time. Further, the TGI in the assay with DU-145 prostate and in the assay with HCT-116 colon was over 100 µM throughout.

Turning to `O=C1NC(=O)/C(=C\c2ccncc2)N1`, the TGI in the assay with CAKI-1 renal, with MCF7 breast, in the assay on SNB-75 CNS, in the assay on NCI-H23 lung, with MDA-MB-231 breast and in the assay with SK-OV-3 ovarian was over 100 µM each time. Further, the TGI in the assay with SF-539 CNS, with DU-145 prostate and with HCT-116 colon was over 100 µM each time.

Regarding `CCCCCCCCCCCCCCCCOCC(CC(F)(F)P(=O)(O)O)OC(C)=O` (stereo not given), the TGI in the assay with SF-268 CNS, in the assay on CAKI-1 renal, in the assay on MCF7 breast, with SNB-75 CNS, with NCI-H23 lung and in the assay on MDA-MB-231 breast was over 50 µM in each case. The TGI in the assay on SK-OV-3 ovarian, with DU-145 prostate and in the assay on HCT-116 colon was over 50 µM in each case.

On to `Oc1ccc(-c2c3c(nc4c2CCc2ccc(Br)cc2-4)-c2cc(Br)ccc2CC3)cc1`, for which the TGI in the assay on SF-268 CNS was 39.9 µM; in the assay with CAKI-1 renal, 33 µM; in the assay with MCF7 breast it was 43.1 µM; in the assay with SNB-75 CNS it was 54.9 µM; in the assay with NCI-H23 lung, 38.7 µM; in the assay with MDA-MB-231 breast, 34.5 µM. Further, the TGI in the assay on SK-OV-3 ovarian came out at 30.6 µM; in the assay with DU-145 prostate, 59.5 µM; in the assay on HCT-116 colon, 53.7 µM.

`CCCCC[C@H](O)[C@H](C)C=C1SCCCS1`: the TGI in the assay with SF-268 CNS, in the assay with CAKI-1 renal, in the assay with MCF7 breast, with SNB-75 CNS, with NCI-H23 lung and in the assay on MDA-MB-231 breast was over 100 µM each time. Besides, the TGI with SK-OV-3 ovarian, in the assay with DU-145 prostate and with HCT-116 colon was over 100 µM each time.

As for `CCCCCCCCCCCCC(=O)NCC(=O)NC(Cc1ccccc1)C(=O)Oc1ccc([N+](=O)[O-])cc1` (stereo not given), the TGI with SF-268 CNS, in the assay with CAKI-1 renal, in the assay with MCF7 breast, with SNB-75 CNS, in the assay on NCI-H23 lung and in the assay on MDA-MB-231 breast was over 100 µM each time. Besides, the TGI in the assay on SF-539 CNS, in the assay on DU-145 prostate and in the assay with HCT-116 colon was over 100 µM in each case.

As to `O=C1/C(=C/c2cccc(Oc3ccccc3)c2)N=C(c2ccccc2)N1c1nc2ccc(Sc3ccccc3)cc2[nH]1`, the TGI with SF-268 CNS is over 100 µM; in the assay with CAKI-1 renal it was over 100 µM; in the assay on MCF7 breast, over 100 µM; in the assay on SNB-75 CNS, 60.4 µM; in the assay with NCI-H23 lung, over 100 µM; in the assay with MDA-MB-231 breast it was 49.9 µM. The TGI with SK-OV-3 ovarian, in the assay on DU-145 prostate and in the assay on HCT-116 colon was over 100 µM throughout.

With `C=C(CCOC)CCC1CCCCC(=C)C1=O` (stereo not given), the TGI with SF-268 CNS, in the assay on CAKI-1 renal, with MCF7 breast, in the assay with SNB-75 CNS, in the assay with NCI-H23 lung and in the assay on MDA-MB-231 breast was over 100 µM each time. Moreover, the TGI in the assay on SK-OV-3 ovarian, with DU-145 prostate and with HCT-116 colon was over 100 µM in each case.
